# Laboratory results: ChEMBL document CHEMBL3046784, “Exploring QSAR of antiamoebic agents of isolated natural products by MLR, ANN, and RTO” (Med Chem Res, 2012)
# System: Entamoeba histolytica
# Assay: Antiamoebic activity against Entamoeba histolytica
# Format: functional, organism-based
# Conditions: not given
row,SMILES,IC50
1,COc1cc2c3cc1Oc1c(OC)c(OC)cc4c1[C@H](Cc1ccc(cc1)Oc1cc(ccc1O)C[C@H]3N(C)CC2)N(C)CC4 (stereo in doubt; 13) [AROMOLINE],2.99 µg/mL
2,COc1cc2c3cc1Oc1c(OC)c(OC)cc4c1[C@H](Cc1ccc(cc1)Oc1cc(ccc1O)C[C@H]3N(C)CC2)N(C)CC4 (stereo in doubt; 117) [AROMOLINE],19.64 µg/mL
3,COc1ccc2cc1Oc1ccc(cc1)C[C@H]1c3cc(c(OC)cc3CCN1C)Oc1c(OC)c(OC)cc3c1[C@H](C2)N(C)CC3 (stereo in doubt; 145) [FANCHININ],25.16 µg/mL
4,COc1ccc2cc1Oc1ccc(cc1)C[C@H]1c3cc(c(OC)cc3CCN1C)Oc1c(OC)c(OC)cc3c1[C@H](C2)N(C)CC3 (stereo in doubt; 146) [FANCHININ],10.51 µg/mL

# Same assay, conditions: Entamoeba histolytica; read-out: IC50
row,SMILES,IC50
1,CC[C@H]1CN2CCc3c([nH]c4ccccc34)[C@@H]2C[C@H]1C[C@H]1c2[nH]c3ccccc3c2CCN1C.O=C(O)C(=O)O,0.65 µg/mL
2,CC(C)=CCC/C(C)=C/CC/C(C)=C/CC/C=C(\C)CC/C=C(\C)CCC=C(C)C,270 µg/mL
3,COC1=C[C@]23CCN(C)[C@H](Cc4cc(OC)c(OC)cc42)C3=CC1=O,50.1 µg/mL
4,CC[C@](C)(OC(C)=O)C(=O)O[C@H]1C(=O)O[C@@H]2C[C@H]3C(C)=CC(=O)[C@@H](O)[C@]3(C)[C@H]3[C@@]4(O)OC[C@]32[C@@H]1[C@@H](C)[C@H]4O [2'-ACETOXY-GLAUCARUBINONE],0.155 µg/mL
5,"COc1c(O)cc2oc(-c3ccc(O)cc3)c(OC)c(=O)c2c1O [3,6-DIMETHOXY KAEMPFEROL]",105 µg/mL
6,C=C[C@H]1CN2CC[C@H]1C[C@@H]2[C@@]12Nc3ccccc3[C@]1(O)CCO2 [3-EPIQUINAMINE],12.9 µg/mL
7,CC[C@@H]1CN2CCc3c([nH]c4ccccc34)[C@H]2C[C@@H]1CCO [3-ISOCORYNANTHEOL],4.1 µg/mL
8,C=C[C@H]1CN2CCc3c([nH]c4ccccc34)[C@@H]2C[C@@H]1C[C@H]1NCCc2c1[nH]c1cccc(OC)c21 [3ALPHA-17ALPHA-CINCHOPHYLLINE],2.2 µg/mL
9,C=C[C@H]1CN2CCc3c([nH]c4ccccc34)[C@@H]2C[C@@H]1C[C@@H]1NCCc2c1[nH]c1cccc(OC)c21 [3ALPHA-17BETA-CINCHOPHYLLINE],0.96 µg/mL
10,"CCc1ccc2[n+](c1)CCc1c-2[nH]c2ccccc12 [5,6-DIHYDROFLAVOPEREIRINE]",6.02 µg/mL
11,C=C[C@H]1CN2CC[C@H]1C[C@H]2c1[nH]c2ccccc2c1CCOC [10-METHOXY CINCHONAMINE],4.5 µg/mL
12,CC[C@@H]1CN2CC[C@@]34c5ccccc5N5[C@@H]([C@@H]6[C@H]7C[C@@H]8N(CC[C@@]89c8cccc(O)c8N(C(C)=O)[C@@H]69)C[C@H]7CC)OC[C@H]([C@H]1C[C@H]23)[C@H]54 [12'-HYDROXYISOSTRYCHNOBILINE],21.4 µg/mL
13,Oc1cc(O)c2c(c1)O[C@H](c1ccc(O)c(O)c1)[C@H](O)C2 [(-)-EPICATECHIN],1.92 µg/mL
14,COC(=O)C1=CO[C@H](O[C@@H]2O[C@H](COC(C)=O)[C@@H](O)[C@H](O)[C@H]2O)[C@H]2[C@@H]1C=C[C@@]21C=C(C(O)c2ccc(O)cc2)C(=O)O1 (stereo not given in full) [ACETYLGAERTNEROSIDE],5.4 µg/mL
15,CCC(C)C(=O)O[C@H]1C(=O)O[C@@H]2C[C@H]3C(C)=CC(=O)[C@@H](O)[C@]3(C)[C@H]3[C@]4(O)OC[C@]32[C@@H]1[C@@H](C)[C@H]4O (stereo not given in full) [AILANTHINONE],0.063 µg/mL
16,CC[C@H]1[C@@H]2C[C@H]3[C@@H]4N(C)c5ccccc5[C@]45C[C@@H]([C@@H]2[C@H]5O)N3[C@@H]1O [AJMALINE],> 100 µg/mL
17,C/C=C(/C=O)[C@@H]1C[C@H]2c3c(c4ccccc4n3[C@@H](O)C1)CCN2C [AKAGERINE],17.1 µg/mL
18,O=c1cc(-c2ccc(O)cc2)oc2cc(OC3O[C@H](CO)[C@@H](O)[C@H](O)[C@H]3O)cc(O)c12 (stereo not given in full) [APIGENIN-7-O-GLUCOSIDE],59.8 µg/mL
19,O=c1cc(-c2ccc(O)cc2)oc2cc(O)cc(O)c12 [APIGENIN],12.7 µg/mL

row,SMILES,IC50
1,COC(=O)C1=CO[C@@H](C)[C@@H]2CN3CCc4c([nH]c5ccc(OC)cc45)[C@@H]3C[C@H]12 [ARICINE],3.6 µg/mL
2,CN1[C@@H]2CC[C@H]1C[C@@H](OC(=O)C(CO)c1ccccc1)C2 (stereo not given in full) [ATROPINE],> 100 µg/mL
3,COc1cc2c3cc1Oc1c(OC)c(OC)cc4c1[C@@H](Cc1ccc(O)c(c1)Oc1ccc(cc1)C[C@@H]3N(C)CC2)N(C)CC4 [BERBAMINE],22.4 µg/mL
4,COc1ccc2cc3[n+](cc2c1OC)CCc1cc2c(cc1-3)OCO2 [BERBERINE],1 µg/mL
5,CC[C@H](CC[C@@H](C)[C@H]1CC[C@H]2[C@@H]3CC=C4C[C@@H](O)CC[C@]4(C)[C@H]3CC[C@]12C)C(C)C [BETA-SITOSTEROL],52.3 µg/mL
6,C/C=C(/C)C(=O)O[C@H]1[C@@H]2[C@H](C)C(=O)O[C@@H]2C[C@@H](C)[C@@H]2C=CC(=O)[C@]21C [BREVILIN A],3.11 µg/mL
7,COC(=O)[C@@]12OC[C@]34[C@H]([C@@H](O)[C@@H]1O)[C@@]1(C)CC(=O)C(O)=C(C)[C@@H]1C[C@H]3OC(=O)[C@H](OC(=O)/C=C(\C)C(C)C)[C@@H]24 [BRUCEANTIN],0.019 µg/mL
8,COC(=O)[C@@]12OC[C@]34[C@H]([C@@H](O)[C@@H]1O)[C@@]1(C)CC(=O)C(O)=C(C)[C@@H]1C[C@H]3OC(=O)[C@H](OC(=O)CC(C)C)[C@@H]24 [BRUCEINE A],0.097 µg/mL
9,COC(=O)[C@@]12OC[C@]34[C@H]([C@@H](O)[C@@H]1O)[C@@]1(C)CC(=O)C(O)=C(C)[C@@H]1C[C@H]3OC(=O)[C@H](OC(C)=O)[C@@H]24 [BRUCEINE B],0.306 µg/mL
10,COC(=O)[C@]12OC[C@]34[C@H]([C@@H](O)[C@@H]1O)[C@@]1(C)CC(=O)C(O)=C(C)[C@@H]1C[C@H]3OC(=O)[C@H](OC(=O)/C=C(\C)C(C)(C)O)[C@@H]24 [BRUCEINE C],0.279 µg/mL
11,CC1=CC(=O)[C@@H](O)[C@]2(C)[C@H]3[C@@H](O)[C@H](O)[C@]4(C)OC[C@@]35[C@@H](C[C@@H]12)OC(=O)[C@H](O)[C@]54O [BRUCEINE D],0.386 µg/mL
12,COC(=O)[C@]12OC[C@]34[C@H]([C@@H](O)[C@@H]1O)[C@@]1(C)CC(=O)C(O)=C(C)[C@@H]1C[C@H]3OC(=O)[C@H](OC(=O)C=C(C)C)[C@@H]24 [BRUSATOL],0.062 µg/mL
13,O=c1ccc2nccc3c4ccccc4n1c23 [CANTHIN-6-ONE],23 µg/mL
14,CC(=O)CCCCCCCCCC[C@H]1CC[C@@H](O)[C@@H](C)N1 [CASSINE],12 µg/mL
15,CC[C@H]1CN2CCc3cc(OC)c(OC)cc3[C@@H]2C[C@@H]1C[C@H]1NCCc2cc(O)c(OC)cc21 [CEPHAELINE],3.26 µg/mL
16,O=c1cc(-c2ccccc2)oc2cc(O)cc(O)c12 [CHRYSIN],81 µg/mL
17,COc1cc(-c2cc(=O)c3c(O)cc(O[C@@H]4O[C@H](CO)[C@@H](O)[C@H](O)[C@H]4O[C@@H]4O[C@@H](C)[C@H](O)[C@@H](O)[C@H]4O)cc3o2)ccc1O [CHRYSOERIOL-7-O-NEOHESPERIDOSIDE],> 125 µg/mL
18,Cc1cc(O)c2c(c1)C(=O)c1cccc(O)c1C2=O [CHRYSOPHANOL],6.21 µg/mL
19,Oc1cc(O)c2c(c1)O[C@H](c1ccc(O)c(O)c1)[C@@H](O)C2 [CIANIDANOL],65.5 µg/mL

row,SMILES,IC50
1,C=C[C@H]1CN2CC[C@H]1C[C@H]2c1[nH]c2ccccc2c1CCO [CINCHONAMINE],14.8 µg/mL
2,COc1cc2c3c4c1Oc1cc5c(cc1O4)[C@H](Cc1ccc(O)c(c1)Oc1ccc(cc1)C[C@@H]3N(C)CC2)NCC5 [COCSOLINE],9.86 µg/mL
3,CI.COc1cc2c3c4c1Oc1cc5c(cc1O4)[C@H](Cc1ccc(O)c(c1)Oc1ccc(cc1)C[C@@H]3N(C)CC2)N(C)CC5 [COCSULINE METHIODIDE],28.9 µg/mL
4,COc1cc2c3c4c1Oc1cc5c(cc1O4)[C@H](Cc1ccc(O)c(c1)Oc1ccc(cc1)C[C@@H]3N(C)CC2)N(C)CC5 [COCSULINE],13.2 µg/mL
5,C[C@@H]1N=C[C@]23CC[C@H]4[C@@H](CC=C5C[C@@H](N)CC[C@@]54C)[C@@H]2CC[C@H]13 [CONCKURCHINE],12 µg/mL
6,CN[C@H]1CC[C@@]2(C)C(=CC[C@H]3[C@@H]4CC[C@@H]5[C@H](C)N=C[C@@]54CC[C@@H]32)C1 [CONESSIDINE],2.29 µg/mL
7,C[C@@H]1NC[C@]23CC[C@H]4[C@@H](CC=C5C[C@@H](N(C)C)CC[C@@]54C)[C@@H]2CC[C@H]13 [CONESSIMINE],1.87 µg/mL
8,C[C@H]1[C@H]2CC[C@H]3[C@@H]4CC=C5C[C@@H](N(C)C)CC[C@]5(C)[C@H]4CC[C@]23CN1C [CONESSINE],8.97 µg/mL
9,COc1ccc2c3c(c4cc(OC)c(OC)cc4c2c1)C[C@H]1CCCCN1C3 [CRYPTOPLEURINE],0.031 µg/mL
10,COc1cc2c3cc1Oc1c(O)c(OC)cc4c1[C@H](Cc1ccc(cc1)Oc1cc(ccc1O)C[C@H]3NCC2)N(C)CC4 [DAPHNOLINE],> 50 µg/mL
11,CC[C@@H]1CN2CC[C@@]34c5ccccc5N5[C@@H]([C@@H]6[C@H]7C[C@@H]8N(CC[C@@]89c8ccccc8N(C(C)=O)[C@@H]69)C[C@H]7CC)OC[C@H]([C@H]1C[C@H]23)[C@H]54 [DIDEHYDRO ISOSTRYCHNOBILINE],21.4 µg/mL
12,COc1ccc2cc1-c1cc(ccc1O)C[C@@H]1c3c(cc(OC)c4c3Oc3cc5c(cc3O4)CCN(C)[C@H]5C2)CCN1C [DINKLACORINE],19.8 µg/mL
13,C/C=C1/C[N+]2(C)CCc3c([nH]c4ccccc34)C2CC1C(CO)C(=O)OC (stereo not given) [DIPLOCELINE],50 µg/mL
14,Oc1cc(O)c2c(c1)O[C@H](c1cc(O)c(O)c(O)c1)[C@H](O)C2 [EPIGALLOCATECHIN],6.89 µg/mL
15,COC(=O)C1=CO[C@H](O[C@@H]2O[C@H](CO)[C@@H](O)[C@H](O)[C@H]2O)[C@H]2[C@@H]1[C@@H]1O[C@@H]1[C@@]21C=C(C(O)c2ccc(O)cc2)C(=O)O1 (stereo not given in full) [EPOXYGAERTNEROSIDE],1.3 µg/mL
16,COc1ccc2cc1Oc1ccc(cc1)C[C@H]1c3cc(c(OC)cc3CCN1C)Oc1c(O)c(OC)cc3c1[C@H](C2)N(C)CC3 [FANGCHINOLINE],14.7 µg/mL
17,O=c1c(O)c(-c2ccc(O)c(O)c2)oc2cc(O)ccc12 [FISETIN],189 µg/mL
18,COc1cc2c3cc1Oc1c(OC)c(OC)cc4c1[C@H](Cc1ccc(O)c(c1)-c1cc(ccc1OC)C[C@H]3N(C)CC2)N(C)CC4 [FUNIFERINE],28.3 µg/mL
